This note sets out measurements from patent US6284918A, “Selective inhibitors of prostaglandin endoperoxide synthase-2” (priority 1999, dated 2001).

The test system of one assay is apoPGHS-1. The experiment in a line: Inhibition of cyclooxygenase activity of apoPGHS-1 and reactivation by hydroxylamine. Format: biochemical, ovine.
The target of another assay is T1, human PGHS-2 (Homo sapiens, UniProt P35354).
T1 construct: made in house; host or cells: insect cells (baculovirus vectors)
T1 sequence (P35354 18-604): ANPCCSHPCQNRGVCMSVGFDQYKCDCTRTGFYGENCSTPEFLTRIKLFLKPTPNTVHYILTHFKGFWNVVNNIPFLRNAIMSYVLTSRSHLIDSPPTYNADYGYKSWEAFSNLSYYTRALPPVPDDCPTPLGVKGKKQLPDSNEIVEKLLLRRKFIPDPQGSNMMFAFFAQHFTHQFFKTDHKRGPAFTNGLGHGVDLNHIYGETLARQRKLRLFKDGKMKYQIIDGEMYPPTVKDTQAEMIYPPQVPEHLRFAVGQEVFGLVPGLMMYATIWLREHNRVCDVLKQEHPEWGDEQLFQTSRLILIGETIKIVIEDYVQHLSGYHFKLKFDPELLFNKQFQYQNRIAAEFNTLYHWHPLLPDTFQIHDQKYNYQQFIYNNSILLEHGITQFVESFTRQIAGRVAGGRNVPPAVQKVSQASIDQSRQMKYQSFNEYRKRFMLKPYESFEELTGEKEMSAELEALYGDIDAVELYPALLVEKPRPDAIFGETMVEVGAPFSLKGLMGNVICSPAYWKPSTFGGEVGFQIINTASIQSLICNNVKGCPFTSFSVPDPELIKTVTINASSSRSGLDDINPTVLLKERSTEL
The experiment in a line: Time- and concentration-dependent inhibition of human PGHS-2, TLC assay (3 h preincubation). Particulars: for IC50 (PGHS-1)/IC50 (PGHS-2) / IC50: Table 2; for IC50 (PGHS-1)/IC50 (PGHS-2): selectivity ratio, 180 min; for IC50: PGHS-2 88 nM. In kind it is biochemical. As for the experimental part:
(§1) Cyclooxygenase activity of ovine PGHS-1 (22 nM) or human PGHS-2 (88 nM) was assayed by TLC. Reaction mixtures of 200 μL consisted of hematin-reconstituted protein in 100 mM Tris-HCl, pH 8.0, 500 μM phenol, and [1-^14 C]arachidonic acid (50 μM, 57 mCi/mmol). For the time-dependent inhibition assay, hematin-reconstituted PGHS-1 (22 nM) or PGHS-2 (88 nM) was preincubated at room temperature for 2 hours and then at 0° C. for 1 hour with varying concentrations of inhibitor in DMSO followed by the addition of [1-^14 C]arachidonic acid (50 μM) for 30 seconds at 37° C. Reactions were terminated by solvent extraction in diethyl ether/methanol/1 M citrate, pH 4.0 (30:4:1). The organic phase was spotted on a TLC plate (Amersham Corp.). The plate was developed with ethyl acetate/methylene chloride/glacial acetic acid (75:25:1) at 4° C. Radiolabeled products were quantitated with a radioactivity scanner (Bioscan, Inc., Washington, D.C.).
(§2) conducted at room temperature for 3 hours. The cyclooxygenase reaction was
(§3) initiated by the addition of 14C-arachidonic acid (50 μM) to the
(§4) incubation mixtures at 37 C for 30 seconds.
(§5) conducted at room temperature for 3 hours. The cyclooygenase reaction was
(§6) initiated by the addition of ^14 C-arachidonic acid ([…]) to the
(§7) incubation mixtures at 37° C. for 30 sec.

The target in assay [1] is T2, ovine PGHS-1 (Ovis aries, UniProt P05979).
T2 construct: PGHS-1 was purified from sheep seminal vesicles as described earlier; tissue Oxford Biomedical Research, Inc. (supplier of the sheep seminal vesicles); host or cells: sheep seminal vesicles
T2 sequence (P05979 25-600): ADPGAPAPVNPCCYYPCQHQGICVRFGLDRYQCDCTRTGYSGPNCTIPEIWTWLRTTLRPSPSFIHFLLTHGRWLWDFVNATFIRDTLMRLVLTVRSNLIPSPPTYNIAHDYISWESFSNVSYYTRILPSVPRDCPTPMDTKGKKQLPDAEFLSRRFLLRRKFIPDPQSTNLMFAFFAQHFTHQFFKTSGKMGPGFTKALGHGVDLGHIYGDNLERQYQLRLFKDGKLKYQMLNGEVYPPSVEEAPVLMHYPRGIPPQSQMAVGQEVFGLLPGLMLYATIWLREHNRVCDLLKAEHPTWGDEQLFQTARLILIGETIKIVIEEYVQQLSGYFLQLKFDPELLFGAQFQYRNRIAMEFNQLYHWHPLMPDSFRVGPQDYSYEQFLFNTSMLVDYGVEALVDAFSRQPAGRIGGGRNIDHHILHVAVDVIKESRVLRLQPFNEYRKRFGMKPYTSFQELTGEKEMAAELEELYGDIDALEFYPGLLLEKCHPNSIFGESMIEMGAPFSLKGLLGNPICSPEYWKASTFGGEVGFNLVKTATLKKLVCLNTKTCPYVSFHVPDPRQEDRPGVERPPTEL
The experiment in a line: Time- and concentration-dependent inhibition of ovine PGHS-1, TLC assay (3 h preincubation). Particulars: Table 2; PGHS-1 22 nM, 3 h at room temperature. In kind it is biochemical. The procedure:
as §1, §2, §3, §4, §5, §6, §7

For assay [2], the system named is PGHS-2 in activated RAW264.7 macrophages. The experiment in a line: Inhibition of PGHS-2 in activated RAW264.7 macrophages. Format: cell-based, murine. The following applies: RAW 264.7, LPS and γ-interferon; for inhibition of cyclooxygenase activity in activated macrophages: FIG. 16; for inhibitory effect on PGHS-2 in activated macrophages compared with aspirin: FIGS. 14 and 15, aspirin 100 μM. The procedure: RAW 264.7 cells were activated for 7 hours at 37° C. in serum free DMEM with LPS (500 ng/mL) and γ-interferon (10 U/mL).
RAW 264.7 cells were activated for 7 hours at 37° C. in serum free DMEM with LPS (500 ng/mL) and γ-interferon (10 U/mL). […] The cyclooxygenase reaction was initiated by adding [1-^14 C]-arachidonic acid (20 μM) for 15 min at 37° C.
The murine macrophage cell line RAW264.7 were seeded overnight for 30% confluency the following morning. Overnight DMEM and fetal bovine serum (FBS) was removed and 2 mL DMEM containing 1.5% FBS±500 ng/mL LPS and 10 units/mL interferon-γ were added for 7.5 hours at 37° C. […] Arachidonic acid metabolism was measured by adding 20 μM 14C-AA for 15 min at room temperature. Aliquots (200 μL) were removed into termination solution and run on TLC plates. In the case of 2-acetoxythioanisole (2), following 8 hours of activation, 500 μM 2 was added for the next 3.5 hours. After 11.5 hours of activation, 20 μM [1-^14 C]arachidonic acid was incubated with the cells for 20 minutes at room temperature, and total products were determined by TLC.

Another assay has as its system holoPGHS-2. The experiment in a line: pH dependence of time-dependent inhibition of cyclooxygenase activity of holoPGHS-2, oxygen uptake assay. Format: biochemical, human. As for the experimental part:
ApoPGHS-2 (5 μM, 1.62 μg/μL) in 100 mM sodium phosphate buffer of pH 6, 7, 8, and 9 was reconstituted with 2 equivalents of hematin. Compound 2 (1000-fold excess) in DMSO was added to the reaction mixture. Periodically, 0.16 μM enzyme aliquots (final inhibitor concentration ~178 μM) were analyzed for remaining cyclooxygenase activity. Open circles, cyclooxygenase activity of holoPGHS-2 treated with 2 at pH 6; closed circles, cyclooxygenase activity of holoPGHS-2+2 at pH 7; open squares, cyclooxygenase activity of holoPGHS-2+2 at pH 8; closed squares, cyclooxygenase activity of holoPGHS-2+2 at pH 9. Control experiments in the absence of inhibitor remained linear throughout the assay period.
ApoPGHS-2 (5 μM, 1.62 μg/μL) in 100 mM sodium phosphate buffer of pH 6, 7, 8, and 9 was reconstituted with 2 equivalents of hematin. Compound 54 (181 μM) in DMSO was added to the reaction mixture. Periodically, 0.16 μM enzyme aliquots (final inhibitor concentration ~6 μM) were analyzed for remaining cyclooxygenase activity. […]
Oxygen consumption was measured at 37° C. with a Gilson model 5/6 oxygraph (Gilson Medical Electronics, Inc., Middleton, Wis.) equipped with a clark electrode and a thermostated cuvette. […] Oxygen uptake was initiated by the addition of 100 μM sodium arachidonate, and the initial reaction velocity was determined from the linear portion of the oxygen uptake curve. […]

In assay [3] the target is T2, ovine PGHS-1. The experiment in a line: Time- and concentration-dependent inhibition of ovine PGHS-1, TLC assay (3 h preincubation). The following applies: FIG. 5; 1 h at room temperature. In kind it is biochemical.
The next assay concerns apo- and holoPGHS-2. The experiment in a line: Inactivation of cyclooxygenase activity of apo- and holoPGHS-2 and reactivation by hydroxylamine. Particulars: 10 mM inhibitor, pH 8, 37° C. Format: biochemical, human. As for the experimental part: Apo or HoloPGHS-2 ([…]) was inactivated with a 1000-fold excess of 2-acetoxythioanisole (2) at 22.5° C. in 100 mM Tris-HCl buffer, pH 8 containing […] phenol for the indicated time period, and then hydroxylamine (80 mM) in 10 mM Tris-HCl buffer, pH 7.5 was added as indicated by the arrow. Periodic 0.16 μM aliquots of holoPGHS-2 (open circles), holoPGHS-2+2-acetoxythioanisole (open squares), apoPGHS-2 (closed circles), apoPGHS-2+2-acetoxythioanisole (closed squares) were analyzed for remaining cyclooxygenase activity.
Oxygen consumption was measured at 37° C. with a Gilson model 5/6 oxygraph (Gilson Medical Electronics, Inc., Middleton, Wis.) equipped with a clark electrode and a thermostated cuvette. […] Oxygen uptake was initiated by the addition of 100 μM sodium arachidonate, and the initial reaction velocity was determined from the linear portion of the oxygen uptake curve.
ApoPGHS-2 (5 μM) or apoPGHS-2 (5 μM), reconstituted with 2 equivalents of hematin in 100 mM Tris-HCl, pH 8 at 37° C. containing 500 μM phenol was treated with 2-acetoxy-1-thioanisole (10 mM). Periodically, 0.16 μM enzyme aliquots were analyzed for remaining cyclooxygenase activity as described earlier. […] Hydroxylamine hydrochloride (80 mM) in 10 mM Tris-HCl, pH 7.5 was then added to the incubation mixture and 0.16 μM enzyme aliquots were analyzed for reactivation of the inhibited cyclooxygenase-2. […]

Regarding `CC(=O)n1ccnc1` [N-acetylimidazole], in the assay with apoPGHS-1, the “inhibition of cyclooxygenase activity of apoPGHS-1” value was “inhibits the cyclooxygenase activity of apoPGHS-1”. The “reactivation after addition of hydroxylamine” value with apoPGHS-1 (hydroxylamine added) is “the enzyme activity is regenerated”.
Broadly, the IC50 is the midpoint of a concentration-inhibition curve. Read a low IC50 as higher potency. As for `CCCCC#CCSc1ccccc1OC(C)=O` [Compound 87, 2-Acetoxyphenyl-hept-2-ynyl sulfide], the “inhibition of cyclooxygenase activity of human holoPGHS-2 (in words)” value against human PGHS-2 (FIGS. 12 and 13, 1-16 μM) was “greatly inhibited”. Moreover, the “IC50 (PGHS-1)/IC50 (PGHS-2)” value on human PGHS-2 is reported as 21. The compound also showed an IC50 at ovine PGHS-1 [1] of over 17 µM. In assay [2], the “inhibition of cyclooxygenase activity in activated macrophages” value is listed as “greatly inhibited”.
As for `CCCCCCCSc1ccccc1OC(C)=O` [Compound 54, 2-Acetoxyphenylheptyl sulfide], on human PGHS-2 (FIG. 9, 3 h at room temperature), the “inhibition of cyclooxygenase activity of human holoPGHS-2 (in words)” value was “greatly inhibited”. Further, the IC50 on human PGHS-2 (3 h at room temperature) came out at 2 µM. The “IC50 (PGHS-1)/IC50 (PGHS-2)” value on human PGHS-2 came to 3. 6 µM corresponded to half-maximal inhibition at ovine PGHS-1 [1] (IC50). Also, in assay [2], the “inhibition of cyclooxygenase activity in activated macrophages” value is “greatly inhibited” and the “inhibitory effect on PGHS-2 in activated macrophages compared with aspirin” value is on record as “greater inhibitory effect on PGHS-2 in activated macrophages than aspirin”. For the same compound, the “pH dependency of inhibition of cyclooxygenase activity of human holoPGHS-2” value with holoPGHS-2 (FIG. 10, pH 6, 7, 8, 9, 181 μM) is listed as “greatest inhibition seen at pH 9”.
For `CC(=O)Oc1ccccc1C(=O)O` [aspirin], on ovine PGHS-1 [3], the “inhibitory effect on PGHS-1 versus PGHS-2” value is recorded as “greater inhibitory effect on PGHS-1 than PGHS-2”.
For the compound `CSc1ccccc1OC(C)=O` [Compound 2, 2-acetoxythioanisole], on human PGHS-2 (3 h at room temperature), it took 250 µM to reach half-maximal inhibition (IC50). Further, the “IC50 (PGHS-1)/IC50 (PGHS-2)” value at human PGHS-2 is over 100. The “inhibition of cyclooxygenase activity” value in the assay on apo- and holoPGHS-2 is recorded as “greater than 70%”. Also, the “inhibitory effect on PGHS-2 in activated macrophages compared with aspirin” value in assay [2] is “greater inhibitory effect on PGHS-2 in activated macrophages than aspirin”. Also, the “inhibition of cyclooxygenase activity of holoPGHS-2” value with holoPGHS-2 (FIG. 7, pH 9, 10 mM inhibitor) was “greatly inhibited”.
